Measured values: patent publication US10106627B2, “Process for the preparation of polymeric biosurfactants” (priority 2014, dated 2018)

Tests used:
[1] = system: RAW 264.7 macrophages; experiment: In vitro MTT assay, proliferation of RAW 264.7 macrophages; assay type: cell-based, mouse; details: 200 μg ml-1, 48 h
Procedure: The effect of Brevisan, Microsan and M-EPS-Au-NP on the proliferation of RAW 264.7 macrophages (ATCC No. CRL-2278) was measured by in vitro MTT assay using the previously described method [Mosmann, T. (1983) J. Immunol. Methods 65, 55-63], which is based on the cell-mediated reduction of tetrazolium salt to form water insoluble formazan crystals. The MTT assay was performed with different concentrations (1-200 μg ml-1) of Brevisan, Microsan and M-EPS-Au-NP were incubated for 48 h using laminarin as a control.

[2] = Interfacial tension, Du-Nouy ring method; assay type: physicochemical
Procedure: The surface tension of the purified Microsan from Microbacterium sp. strain BS-2 and Brevisan from Brevibacillus sp. strain BS-207 was measured by Wilhelmy plate method using a Du-Nouy K100MK2 Processor Tensiometer (Krüss, Hamburg, Germany) which reduced the surface tension of water from 72 to 31.2 mN m^−1. The interfacial tension value was measured by Du-Nouy ring method and it was determined as 25.7 mN m. The critical micelle concentration (CMC) was measured by plotting the concentration of EPS as a function of surface tension. The CMC is the point where the slope of the curve abruptly changed was determined as 75 mg l^−1. The emulsification index (EI24) was determined by the addition of 4 ml of culture supernatant to 6 ml of various hydrocarbons (N-Hexadecane, tridecane, hexane, toluene and xylene) and oils (mineral oil and soybean oil) and the mixtures were vortexed for 2 min and allowed to stand for 24 h. The emulsification index (EI24) values expressed as the percentage of height of emulsified layer to the height of total liquid column.

[3] = system: intracellular reactive oxygen species (ROS) in RAW 264.7 macrophages; experiment: LPS-induced intracellular ROS (DCFH-DA) in RAW 264.7 macrophages; assay type: cell-based, mouse; details: 20 μg ml^−1; LPS 100 ng/ml 24 h; LPS alone 78.97%
Procedure: The inhibition of intracellular reactive oxygen species (ROS) by Brevisan, Microsan and M-EPS-Au-NP in RAW 264.7 macrophages was measured using the oxygen free radical acceptor 2,7,-dichlorofluorescein diacetate (DCFH-DA) [Wang, H., and Joseph J. A. (1999) Free. […] The RAW-264.7 macrophages (2×10^6 cells/well in 24-well plate) were treated with Brevisan, Microsan and M-EPS-Au-NP at various concentrations and then stimulated with 100 ng/ml LPS for 24 h using N-acetylcysteine (NAC, 10 mM) as a ROS inhibitor. The DCF formed by intracellular ROS was measured at 485 nm excitation and 520 nm emission wavelengths using a Hitachi spectrofluorimeter. The experiments were run in triplicates and reported as the percentage of intracellular ROS formed.

[4] = system: C3 complement component in RAW 264.7 macrophages; experiment: LPS-induced C3 complement component production ELISA in RAW 264.7 macrophages; assay type: cell-based, mouse; details: 1, 10, 20 and 50 μg/ml; LPS 100 ng ml^−1 24 h
Procedure: The effect of Brevisan, Microsan and M-EPS-Au-NP on C3 complement component was measured using ELISA kits (Antibodies, Atlanta, USA). RAW 264.7 cells were treated with Brevisan, Microsan and M-EPS-Au-NP at 1, 10, 20 and 50 μg/ml, respectively, and then stimulated with 100 ng ml^−1 of LPS. After incubating for 24 h, 50 μl of supernatant was collected and added to each well in an antibody coated 96-well plate. After I h, the wells were washed with PBS and incubated with 100 μl of horse radish peroxidase (HRP)-conjugate for 1 h at 37° C. and then incubated with 50 μl of O-phenylenediamine (0.2% w/v in 0.017 M citrate phosphate buffer, pH 6) and 50 μl of 0.015% hydrogen peroxide for 15 min and the reaction was stopped by adding 50 μl of 12.5% sulphuric acid and the optical density was measured at 450 nm using Biotek EIA Reader (Biotek Instruments, Inc., VT, USA). The results shown are the average of three independent experiments. Further, the hemolytic activity of the secreted C3 was measured as described earlier [Gasque, P., Julen, N., Ischenko, A. M., Picot, C., Mauger, C., Chauzy, C., Ripoche, J. and Fontaine, M. (1992) J. Immunol. 149, 1381-1389]. […] Then 1.5 ml of PBS was added, centrifuged at 10,000 rpm for 5 min and the hemoglobin released present in the supernatant was quantified by measuring the absorbance at 415 nm. […]

Question: With “β-D-glucuronyl-(1-2)-D-mannosyl-(1-4)-D-glucose [Microsan]” as the substance, how does the “cell proliferation (MTT)” value [1] read?
Answer: 89.07%

Question: And the interfacial tension [2]?
Answer: 25.7 mN m

Question: What about the “LPS-induced ROS levels after treatment” value [3] of the same substance?
Answer: 55.71%

Question: And the “inhibition of C3 complement component production” value [4]?
Answer: did not inhibit
